Laboratory results as given in ChEMBL document CHEMBL6153037, “Developing dual-responsive quinolinium prodrugs of 8-hydroxyquinoline by harnessing the dual chelating sites” (Eur J Med Chem, 2025).
The source made the active and inactive calls. No cut-off for these calls is given here.

Legend:
MDA-MB-231 [1] = test: Induction of cell cycle arrest in human MDA-MB-231 cells assessed as accumulation at G0/G1 phase by PI staining based flow cytometry (reference value: 43.25 %); type: functional
MDA-MB-231 [2] = test: Inhibition of mitochondrial membrane potential in human MDA-MB-231 cells incubated for 24 hrs by JC-1 dye based analysis (reference value: 5.51 %); type: functional
MDA-MB-231 [3] = test: Inhibition of mitochondrial membrane potential in human MDA-MB-231 cells incubated for 24 hrs in presence of UV by JC-1 dye based analysis (reference value: 5.51 %); type: functional
MCF-10A [4] = test: Cytotoxicity against human MCF-10A cells exposed to UV incubated for 48 hrs by MTT assay; type: toxicity, cell-based
MDA-MB-231 [5] = test: Induction of apoptosis in human MDA-MB-231 cells assessed as early apoptotic cells incubated for 24 hrs by Annexin V-FITC/PI staining based flow cytometry (reference value: 1.94 %); type: functional
[6] = Prodrug conversion in PBS at pH 7.4 containing H2O2 assessed as PBAPE intermediate with exposed quinoline nitrogen by measuring retention time at 50 uM measured for 30 mins by HPLC analysis; type: ADME; conditions: buffer, pH 7.4, 0.5 h
MDA-MB-231 [7] = test: Induction of apoptosis in human MDA-MB-231 cells assessed as viable cells incubated for 24 hrs by Annexin V-FITC/PI staining based flow cytometry (reference value: 92.06 %); type: functional
MDA-MB-231 [8] = test: Induction of apoptosis in human MDA-MB-231 cells assessed as necrotic cells incubated for 24 hrs by Annexin V-FITC/PI staining based flow cytometry (reference value: 3.6 %); type: functional
MDA-MB-231 [9] = test: Cytotoxicity against human MDA-MB-231 cells incubated for 48 hrs in presence of UV by MTT assay; type: functional, cell-based
[10] = Prodrug conversion in PBS at pH 7.4 exposed to UV assessed as 8-Hydroxy-1-(4-(4,4,5,5-tetramethyl-1,3,2-dioxaborolan-2-yl)benzyl)quinolin-1-ium bromide metabolite formation by measuring retention time at 50 uM measured for 30 mins by HPLC analysis; type: ADME; conditions: buffer, pH 7.4, 0.5 h
MDA-MB-231 [11] = test: Induction of apoptosis in human MDA-MB-231 cells assessed as late apoptotic cells incubated for 24 hrs by Annexin V-FITC/PI staining based flow cytometry (reference value: 2.4 %); type: functional
[12] = Hepatorenal toxicity in ICR mouse assessed as change in AST level at 30 mg/kg, iv measured after 48 hrs; type: organism-based; conditions: in vivo
[13] = Hepatorenal toxicity in ICR mouse assessed as change in serum creatinine level at 30 mg/kg, iv measured after 48 hrs; type: organism-based; conditions: in vivo
MDA-MB-231 [14] = test: Induction of apoptosis in human MDA-MB-231 cells assessed as early apoptotic cells incubated for 24 hrs in presence of UV by Annexin V-FITC/PI staining based flow cytometry (reference value: 1.94 %); type: functional
MDA-MB-231 [15] = test: Induction of cell cycle arrest in human MDA-MB-231 cells assessed as accumulation at G0/G1 phase in presence of UV by PI staining based flow cytometry (reference value: 43.25 %); type: functional
MDA-MB-231 [16] = test: Cytotoxicity against human MDA-MB-231 cells incubated for 48 hrs in absence of UV by MTT assay; type: functional, cell-based
[17] = Hepatorenal toxicity in ICR mouse assessed as change in ALT level at 30 mg/kg, iv measured after 48 hrs; type: organism-based; conditions: in vivo
MDA-MB-231 [18] = test: Induction of apoptosis in human MDA-MB-231 cells assessed as necrotic cells incubated for 24 hrs in presence of UV by Annexin V-FITC/PI staining based flow cytometry (reference value: 3.6 %); type: functional
[19] = Hepatorenal toxicity in ICR mouse assessed as change in BUN level at 30 mg/kg, iv measured after 48 hrs; type: organism-based; conditions: in vivo
MDA-MB-231 [20] = test: Induction of apoptosis in human MDA-MB-231 cells assessed as viable cells incubated for 24 hrs in presence of UV by Annexin V-FITC/PI staining based flow cytometry (reference value: 92.06 %); type: functional
[21] = Prodrug conversion in PBS at pH 7.4 exposed to UV assessed as 8-HQ release by measuring retention time at 50 uM measured for 30 mins by HPLC analysis; type: ADME; conditions: buffer, pH 7.4, 0.5 h
MDA-MB-231 [22] = test: Induction of apoptosis in human MDA-MB-231 cells assessed as late apoptotic cells incubated for 24 hrs in presence of UV by Annexin V-FITC/PI staining based flow cytometry (reference value: 2.4 %); type: functional
[23] = Solubility of compound in PBS buffer at pH 7.4; type: physicochemical
MCF-10A [24] = test: Cytotoxicity against human MCF-10A cells assessed as inhibition of cell viability at 150 uM incubated for 48 hrs by MTT assay; type: toxicity, cell-based
MDA-MB-231 [25] = test: Antitumor activity against human MDA-MB-231 cells xenografted in BALB/c nude mouse assessed as tumor size at 20 mg/kg, iv administered every two days for 21 days (reference value: 1940 mm3); type: functional; conditions: time 21 day
MDA-MB-231 [26] = test: Induction of apoptosis in human MDA-MB-231 cells assessed as increase in caspase-3 activity incubated for 24 hrs; type: functional, cell-based
[27] = Lipophilicity, logD of compound at pH 7.4; type: physicochemical; conditions: buffer, read-out: logD
MDA-MB-231 [28] = test: Antitumor activity against human MDA-MB-231 cells assessed as reduction in sphere volume incubated for 6 hrs followed by medium replacement without compound measured after 6 days by microscopic analysis; type: functional, cell-based
MDA-MB-231 [29] = test: Cytotoxicity against human MDA-MB-231 cells incubated for 48 hrs by MTT assay; type: functional, cell-based; conditions: MDA-MB-231, 48 h
MCF-10A [30] = test: Induction of apoptosis in human MCF-10A cells assessed as late apoptotic cells incubated for 24 hrs by Annexin V-FITC/PI staining based flow cytometry (reference value: 2.16 %); type: toxicity, cell-based
MDA-MB-231 [31] = test: Induction of apoptosis in human MDA-MB-231 cells incubated for 24 hrs by TUNEL assay; type: functional, cell-based
MCF-10A [32] = test: Inhibition of mitochondrial membrane potential in human MCF-10A cells incubated for 24 hrs by JC-1 dye based analysis; type: toxicity, cell-based
[33] = Induction of apoptosis in human MCF-10A cells assessed as viable cells incubated for 24 hrs by Annexin V-FITC/PI staining based flow cytometry (reference value: 96.0 %); type: toxicity, cell-based; conditions: read-out: Activity
MCF-10A [34] = test: Induction of apoptosis in human MCF-10A cells assessed as increase in caspase-3 activity incubated for 24 hrs; type: toxicity, cell-based
MDA-MB-231 [35] = test: Induction of apoptosis in human MDA-MB-231 cells assessed as necrotic cells incubated for 24 hrs by Annexin V-FITC/PI staining based flow cytometry (reference value: 0.065 %); type: functional
MDA-MB-231 [36] = test: Cytotoxicity against human MDA-MB-231 cells incubated for 24 hrs by MTT assay; type: functional, cell-based; conditions: MDA-MB-231, 24 h
MDA-MB-231 [37] = test: Cytotoxicity against human MDA-MB-231 cells assessed as inhibition of cell viability incubated for 48 hrs by MTT assay; type: functional, cell-based; conditions: MDA-MB-231, 48 h
MDA-MB-231 [38] = test: Antitumor activity against human MDA-MB-231 cells xenografted in BALB/c nude mouse assessed as tumor growth inhibition at 20 mg/kg, iv administered every two days for 21 days; type: functional, organism-based; conditions: time 21.0 day
[39] = Selectivity index, ratio of inhibition of DNA synthesis in human MCF-10A cells to inhibition of DNA synthesis in human MDA-MB-231 cells; type: toxicity, cell-based; conditions: MCF-10A cells and MDA-MB-231 cells
MDA-MB-231 [40] = test: Inhibition of mitochondrial membrane potential in human MDA-MB-231 cells incubated for 24 hrs by JC-1 dye based analysis; type: functional, cell-based
MDA-MB-231 [41] = test: Induction of apoptosis in human MDA-MB-231 cells assessed as early apoptotic cells incubated for 24 hrs by Annexin V-FITC/PI staining based flow cytometry (reference value: 0.22 %); type: functional
MCF-10A [42] = test: Induction of apoptosis in human MCF-10A cells assessed as necrotic cells incubated for 24 hrs by Annexin V-FITC/PI staining based flow cytometry (reference value: 0.17 %); type: toxicity, cell-based
MCF-10A [43] = test: Induction of apoptosis in human MCF-10A cells assessed as early apoptotic cells incubated for 24 hrs by Annexin V-FITC/PI staining based flow cytometry (reference value: 1.66 %); type: toxicity, cell-based
MDA-MB-231 [44] = test: Inhibition of mitochondrial membrane potential in human MDA-MB-231 cells assessed as increase in intracellular calcium ion level incubated for 24 hrs by Fluo-4 AM dye based analysis; type: functional, cell-based
MDA-MB-231 [45] = test: Antitumor activity against human MDA-MB-231 cells xenografted in BALB/c nude mouse at 20 mg/kg, iv administered every two days for 21 days relative to control; type: functional; conditions: MDA-MB-231, 504 h, time 21 day, read-out: TGI
MDA-MB-231 [46] = test: Induction of DNA damage in human MDA-MB-231 cells assessed as increase in gamma-H2AX level incubated for 24 hrs by immunofluorescence based analysis; type: functional, cell-based
MDA-MB-231 [47] = test: Induction of apoptosis in human MDA-MB-231 cells assessed as viable cells incubated for 24 hrs by Annexin V-FITC/PI staining based flow cytometry (reference value: 99.5 %); type: functional
MDA-MB-231 [48] = test: Antitumor activity against human MDA-MB-231 cells assessed as sphere-forming efficiency incubated for 6 hrs followed by medium replacement without compound measured after 6 days by microscopic analysis (reference value: 1.07 %); type: functional
[49] = Toxicity in BALB/c nude mouse xenografted with human MDA-MB-231 cells assessed as body weight change at 20 mg/kg, iv administered every two days for 21 days; type: organism-based; conditions: in vivo, 504 h, time 21 day
[50] = Lipophilicity, logP of compound; type: physicochemical; conditions: octanol/water; read-out: logP
[51] = Solubility of compound in double distilled H2O; type: physicochemical; conditions: double distilled water
MDA-MB-231 [52] = test: Inhibition of mitochondrial membrane potential in human MDA-MB-231 cells assessed as decrease in ATP level incubated for 24 hrs by luminescence based analysis; type: functional, cell-based
MDA-MB-231 [53] = test: Induction of apoptosis in human MDA-MB-231 cells assessed as late apoptotic cells incubated for 24 hrs by Annexin V-FITC/PI staining based flow cytometry (reference value: 0.17 %); type: functional

Br.CC1(C)OB(c2ccc(C[n+]3cccc4cccc(OCc5ccccc5[N+](=O)[O-])c43)cc2)OC1(C)C
Activity (MDA-MB-231 [1]): 45.12% | inhibition (INH) (MDA-MB-231 [2]): 15.85% | inhibition (INH) (MDA-MB-231 [3]): 62.81% | Activity (MCF-10A [4]): Non-toxic | Activity (MDA-MB-231 [5]): 8.03% | Retention_time [6]: 14.8 min | Activity (MDA-MB-231 [7]): 80.18% | Activity (MDA-MB-231 [8]): 1.03% | Activity (MDA-MB-231 [9]): Dose-dependent-effect | Retention_time [10]: 16.4 min | Activity (MDA-MB-231 [11]): 10.76% | Activity [12]: Non-toxic | Activity [13]: Non-toxic | Activity (MDA-MB-231 [14]): 23.32% | Activity (MDA-MB-231 [15]): 58.23% | Activity (MDA-MB-231 [16]): inactive | Activity [17]: Non-toxic | Activity (MDA-MB-231 [18]): 4.21% | Activity [19]: Non-toxic | Activity (MDA-MB-231 [20]): 52.82% | Retention_time [21]: 3.6 min | Activity (MDA-MB-231 [22]): 19.66%

OC[C@H]1O[C@@H](Oc2ccc(C[n+]3cccc4cccc(O)c43)cc2)[C@H](O)[C@@H](O)[C@@H]1O.[Cl-]
solubility [23]: 34.2 µg/mL | Activity (MCF-10A [24]): Non-toxic | Activity (MDA-MB-231 [25]): 970 mm3 | Activity (MDA-MB-231 [26]): Dose-dependent-effect | logD [27]: 1.72 | Activity (MDA-MB-231 [28]): Active | IC50 (MDA-MB-231 [29]): 17.9 µM | Activity (MCF-10A [30]): 6.44% | Activity (MDA-MB-231 [31]): Active | inhibition (INH) (MCF-10A [32]): Non-toxic | viability at 24 h [33]: 87.4% | Activity (MCF-10A [34]): Non-toxic | Activity (MDA-MB-231 [35]): 0.043% | IC50 (MDA-MB-231 [36]): 31 µM | IC50 (MDA-MB-231 [37]): 26.2 µM | inhibition (MDA-MB-231 [38]): Active | selectivity ratio [39]: 5.7 | inhibition (MDA-MB-231 [40]): Active | Activity (MDA-MB-231 [41]): 36.1% | Activity (MCF-10A [42]): 0.4% | Activity (MCF-10A [43]): 5.79% | inhibition (MDA-MB-231 [44]): Active | inhibition in vivo at 20 mg/kg (MDA-MB-231 [45]): 49.6% | Activity (MDA-MB-231 [46]): Active | Activity (MDA-MB-231 [47]): 53.4% | Activity (MDA-MB-231 [48]): 0.26% | Activity [49]: Non-toxic | logP [50]: 2.93 | solubility [51]: 35.5 µg/mL | inhibition (MDA-MB-231 [52]): Active | Activity (MDA-MB-231 [53]): 10.5%
